Laboratory results: article PMC3285636, “Identification by Virtual Screening and In Vitro Testing of Human DOPA Decarboxylase Inhibitors” (PLoS ONE, 2012)
Read-outs that look alike come from different tables or passages of the source. Marks after values point to notes of the source that are not given here. One block for each compound: values may come before it.

Key:
human DDC [1] = target: T1, human DDC (Homo sapiens, UniProt P20711); experiment: Assay of the inhibitory activity: spectrophotometric measurement of dopamine production by DDC; format: biochemical; settings: for IC50 / Ki: 50 nM enzyme, 10 µM PLP; for IC50: 0.1 mM L-Dopa, pH 7.4, 25°C, 9 concentrations in duplicate; for Ki: L-Dopa; for Ki / Ki′: 0.1 M potassium phosphate pH 7.4, 25°C, from Lineweaver–Burk plots; for Inhibition of DDC activity: at a concentration in which solubility of the compound was maximum; for BE (binding efficiency): binding energy per unit of mass, from Ki and molecular weight in kDa; for Inhibition profile: type of inhibition from Lineweaver–Burk plots; for Ki′: mixed or noncompetitive inhibition
T1 construct: made in house
T1 sequence (P20711 1-480): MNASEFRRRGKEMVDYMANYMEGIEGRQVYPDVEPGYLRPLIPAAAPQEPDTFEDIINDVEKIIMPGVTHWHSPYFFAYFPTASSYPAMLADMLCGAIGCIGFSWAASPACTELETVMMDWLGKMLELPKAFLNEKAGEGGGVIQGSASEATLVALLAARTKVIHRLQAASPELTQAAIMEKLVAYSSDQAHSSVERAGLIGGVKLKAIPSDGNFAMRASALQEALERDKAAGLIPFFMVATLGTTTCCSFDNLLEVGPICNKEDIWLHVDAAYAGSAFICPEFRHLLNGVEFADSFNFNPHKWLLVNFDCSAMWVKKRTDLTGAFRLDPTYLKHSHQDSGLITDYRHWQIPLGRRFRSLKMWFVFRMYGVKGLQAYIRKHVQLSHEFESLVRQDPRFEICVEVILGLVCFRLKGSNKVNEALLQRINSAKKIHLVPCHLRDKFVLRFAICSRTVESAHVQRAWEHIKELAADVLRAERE
Procedure: DDC activity was determined by measuring the production of dopamine with a spectrophotometric assay outlined by Sherald et al. and modified by Charteris and John. The reaction was carried out in 0.1 M potassium phosphate buffer pH 7.4 at 25°C for 1 min and stopped by inactivation of the enzyme at 100°C for 90 sec. The inhibitory assay was performed by measuring the decarboxylase activity of DDC with 50 nM enzyme, 0.1 mM L-Dopa, and 10 µM PLP in the presence and in the absence of a fixed amount of each compound. Various amounts of dimethyl sulphoxyde (DMSO) were necessary to solubilize the compounds in 100 mM potassium phosphate buffer, pH 7.4. […] Compounds were evaluated at 9 concentrations, and each in duplicate. IC50 values were derived by nolinear regression analysis. The related inhibition type of the compounds on human DDC was identified from Lineweaver–Burk plots, and Ki and/or Ki′ values for the inhibitors tested were calculated by the software Origin 7.0.

human DDC [2] = target: T1, human DDC; experiment: Enzyme-ligand equilibrium dissociation constant from visible CD signal changes of DDC; format: binding; settings: change of 420 nm or 335 nm CD band, 100 mM potassium phosphate pH 7.4
Procedure: The equilibrium dissociation constant for each tested compound from DDC was determined by monitoring the decrease in the 420 nm CD signal of DDC (7 µM) in the presence of various ligand concentrations in 100 mM potassium phosphate buffer, pH 7.4. In any case, the maximun DMSO concentration in the mixture was kept lower than 1% (v/v). The KD values were obtained from the fitting of the data to the equation [drawing 3] where [E]t and [L]t represent the total concentrations of DDC dimer and ligand, respectively, Y refers to the visible CD signal change at 420 nm at the ligand concentration [L], and Ymax refers to the CD signal when all enzyme molecules are complexed with the ligand. CD measurements were performed with a Jasco J-710 spectropolarimeter using quartz cuvettes with 1 cm path length.

SMILES: O=C(O)c1cccc(NS(=O)(=O)c2ccc3nnn(O)c3c2)c1 [Compound 1]
- IC50 (human DDC [1]; read-out: IC50): 570 ± 66 µM
- Ki (human DDC [1]; read-out: Ki): 106 ± 7 µM
- Inhibition of DDC activity (human DDC [1]): ≥ 70%
- BE (binding efficiency) (human DDC [1]): 11.9
- Inhibition profile (human DDC [1]): competitive inhibition
- Kd (human DDC [2]): 240 ± 68 µM

SMILES: O=S(=O)(c1ccc2nnn(O)c2c1)N1CCCCC1 [Compound 2]
- IC50 (human DDC [1]; read-out: IC50): 1500 ± 220 µM
- Ki (human DDC [1]; read-out: Ki): 390 ± 30 µM
- Inhibition of DDC activity (human DDC [1]): ≥ 70%
- BE (binding efficiency) (human DDC [1]): 12.1
- Inhibition profile (human DDC [1]): competitive inhibition
- Kd (human DDC [2]): 516 ± 126 µM

SMILES: CCOc1cc(-c2ccc(O)c(O)c2)cc(=O)c2c(C)oc(C)c12 [Compound 6]
- Inhibition of DDC activity (human DDC [1]): do not inhibit DDC activity

SMILES: Cc1cccc(NC(=O)COC(=O)c2[nH]c(=O)[nH]c(=O)c2N)c1C [Compound 8]
- Inhibition of DDC activity (human DDC [1]): do not inhibit DDC activity

SMILES: CC(C)C(NC(=O)Cc1n[nH]c(=O)c2ccccc12)c1nc2ccccc2[nH]1 (stereo not drawn) [Compound 13]
- Inhibition of DDC activity (human DDC [1]): do not inhibit DDC activity

SMILES: O=C1Nc2ccc(S(=O)(=O)N3CCCCC3)c3cccc1c23 [Compound 15]
- Inhibition of DDC activity (human DDC [1]): do not inhibit DDC activity

SMILES: O=C(O)c1ccccc1NS(=O)(=O)c1ccc2[nH]c(=O)[nH]c2c1 [Compound 16]
- Ki (human DDC [1]; read-out: Ki): 59.8 ± 0.3 µM
- BE (binding efficiency) (human DDC [1]): 12.7
- Inhibition profile (human DDC [1]): competitive inhibitors

SMILES: O=C(Nc1ccccc1)c1ccccc1NS(=O)(=O)c1ccc2[nH]c(=O)[nH]c2c1 [Compound 17]
- IC50 (human DDC [1]; read-out: IC50): 16.8 ± 1.7 µM
- Ki (human DDC [1]; read-out: Ki): 4.4 ± 1.4 µM
- BE (binding efficiency) (human DDC [1]): 13.1
- increase of affinity (human DDC [1]; compared with compound 5): about 13 fold
- Inhibition profile (human DDC [1]): competitive inhibitors
- Kd (human DDC [2]): 17.5 ± 5.1 µM

Next, values leading:

- IC50 (human DDC [1]; read-out: IC50): 12.8 ± 0.4 µM
- Ki (human DDC [1]; read-out: Ki): 6.03 ± 0.55 µM
- Inhibition of DDC activity (human DDC [1]): ≥ 70%
- Ki′ (human DDC [1]): 23.1 ± 1.1 µM
- Inhibition profile (human DDC [1]): mixed inhibition
SMILES: O=C1C(=Cc2ccc(O)c(O)c2)C(=O)c2ccccc21 [Compound 10]

- IC50 (human DDC [1]; read-out: IC50): 27.3 ± 1.6 µM
- Ki (human DDC [1]; read-out: Ki): 10.7 ± 2.4 µM
- Inhibition of DDC activity (human DDC [1]): ≥ 70%
- BE (binding efficiency) (human DDC [1]): 13.0
- Inhibition profile (human DDC [1]): competitive inhibition
- Kd (human DDC [2]): 16.1 ± 2.1 µM
SMILES: Oc1cccc(/C=N/n2c(S)nnc2-c2ccc(Cl)cc2Cl)c1O [Compound 11]

- Inhibition of DDC activity (human DDC [1]): ~55%
- Ki′ (human DDC [1]): 19.4±1.4^b µM
- Inhibition profile (human DDC [1]): noncompetitive inhibition
SMILES: Nc1c(S(=O)(=O)c2ccccc2)c2nc3ccccc3nc2n1/N=C/c1ccc(O)c(O)c1 [Compound 12]

- Ki (human DDC [1]; read-out: Ki): 63.2 ± 3.1 µM
- BE (binding efficiency) (human DDC [1]): 11.5
- Inhibition profile (human DDC [1]): competitive inhibitors
SMILES: Oc1ccc(/C=N/n2c(S)nnc2-c2ccc(Cl)cc2Cl)cc1 [Compound 18]

- DDC inhibitory activity in words (human DDC [1]; structure-activity discussion): poorly active
SMILES: Oc1ccccc1/C=N/n1c(S)nnc1-c1ccc(Cl)cc1Cl [Compound 19]

- Ki (human DDC [1]; read-out: Ki): 36.8 ± 4.2 µM
- BE (binding efficiency) (human DDC [1]): 12.1
- Inhibition profile (human DDC [1]): competitive inhibitors
- Kd (human DDC [2]): 28.2 ± 3.2 µM
SMILES: Oc1cccc(/C=N/n2c(S)nnc2-c2ccc(Cl)cc2Cl)c1 [Compound 20]

- IC50 (human DDC [1]; read-out: IC50): 6.3 ± 0.9 µM
- Ki (human DDC [1]; read-out: Ki): 2.3 ± 0.4 µM
- BE (binding efficiency) (human DDC [1]): 16.3
- Inhibition profile (human DDC [1]): competitive inhibitors
- Kd (human DDC [2]): 2.5 ± 0.7 µM
SMILES: Oc1ccc(/C=N/n2c(S)nnc2-c2ccc(Cl)cc2)cc1O [Compound 21]

- IC50 (human DDC [1]; read-out: IC50): 6.7 ± 0.9 µM
- Ki (human DDC [1]; read-out: Ki): 15.1 ± 0.1 µM
- Ki′ (human DDC [1]): 46.7 ± 0.5 µM
- Inhibition profile (human DDC [1]): mixed mode
SMILES: Oc1ccc(/C=N/n2c(S)nnc2-c2ccccc2)c(O)c1O [Compound 22]

- IC50 (human DDC [1]): 16.6 ± 0.3 µM
- Ki (human DDC [1]; read-out: Ki): < 10 µM
- Ki (human DDC [1]; Ki): 5.7 ± 0.1 µM
- BE (binding efficiency) (human DDC [1]): 16.8
- Inhibition profile (human DDC [1]): competitive inhibitors
- Kd (human DDC [2]): 4.7 ± 0.5 µM
SMILES: Oc1cccc(/C=N/n2c(S)nnc2-c2ccccc2)c1O [Compound 23]

- IC50 (human DDC [1]; read-out: IC50): 77.1 ± 2.4 µM
- Ki (human DDC [1]; read-out: Ki): 120 ± 14 µM
- BE (binding efficiency) (human DDC [1]): 11.9
- Inhibition profile (human DDC [1]): competitive inhibitors
SMILES: Oc1cccc(/C=N/n2c(S)nnc2-c2ccc(Cl)cc2)c1 [Compound 24]
